Laboratory results taken from ChEMBL document CHEMBL1909046, “DrugMatrix in vitro pharmacology data”.

What was measured:
[1] = biological target: T1, Receptor-type tyrosine-protein phosphatase C (Homo sapiens, UniProt P08575); set-up: species or system Escherichia coli;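 note: inhibition of CD45 enzyme activity measured using DiFMUP as substrate; in other assays of this panel Not Active means under 50% inhibition at 10 µM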
T1 sequence (P08575 whole entry): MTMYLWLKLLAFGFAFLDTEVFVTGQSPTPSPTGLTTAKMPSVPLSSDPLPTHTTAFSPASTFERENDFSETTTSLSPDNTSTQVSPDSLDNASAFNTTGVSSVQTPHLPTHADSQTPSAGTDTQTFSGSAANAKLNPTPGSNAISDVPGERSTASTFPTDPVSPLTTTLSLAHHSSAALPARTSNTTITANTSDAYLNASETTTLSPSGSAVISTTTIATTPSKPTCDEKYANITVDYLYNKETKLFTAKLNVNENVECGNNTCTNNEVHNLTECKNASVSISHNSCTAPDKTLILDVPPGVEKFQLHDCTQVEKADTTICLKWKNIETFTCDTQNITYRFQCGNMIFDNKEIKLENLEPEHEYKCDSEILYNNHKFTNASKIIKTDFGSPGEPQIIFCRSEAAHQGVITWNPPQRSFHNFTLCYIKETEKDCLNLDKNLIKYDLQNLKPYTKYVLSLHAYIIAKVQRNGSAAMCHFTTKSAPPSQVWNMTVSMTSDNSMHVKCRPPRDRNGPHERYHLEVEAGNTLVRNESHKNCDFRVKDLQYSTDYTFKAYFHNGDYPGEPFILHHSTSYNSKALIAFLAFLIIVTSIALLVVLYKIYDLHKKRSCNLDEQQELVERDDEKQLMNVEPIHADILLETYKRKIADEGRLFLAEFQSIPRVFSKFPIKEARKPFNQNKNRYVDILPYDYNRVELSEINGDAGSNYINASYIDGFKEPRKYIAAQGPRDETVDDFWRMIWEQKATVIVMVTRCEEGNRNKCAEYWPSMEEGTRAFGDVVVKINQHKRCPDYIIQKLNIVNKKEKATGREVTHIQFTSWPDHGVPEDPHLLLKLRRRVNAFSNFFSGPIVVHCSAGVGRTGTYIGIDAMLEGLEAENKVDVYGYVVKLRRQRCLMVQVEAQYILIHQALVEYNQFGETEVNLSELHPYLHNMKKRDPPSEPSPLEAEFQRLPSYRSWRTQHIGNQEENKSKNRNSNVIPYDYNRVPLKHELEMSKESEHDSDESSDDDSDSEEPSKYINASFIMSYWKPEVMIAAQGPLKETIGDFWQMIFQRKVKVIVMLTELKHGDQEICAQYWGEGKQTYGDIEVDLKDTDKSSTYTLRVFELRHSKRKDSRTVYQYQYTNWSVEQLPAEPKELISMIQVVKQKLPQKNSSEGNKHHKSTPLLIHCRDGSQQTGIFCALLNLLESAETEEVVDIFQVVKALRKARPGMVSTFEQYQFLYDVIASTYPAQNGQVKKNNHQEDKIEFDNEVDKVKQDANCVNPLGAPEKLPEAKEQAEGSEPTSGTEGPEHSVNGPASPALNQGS

Estrogen receptor = biological target: T2, Estrogen receptor (Homo sapiens, UniProt P03372); settings: sf9; note: in other assays of this panel Not Active means under 50% inhibition at 10 µM
T2 sequence (P03372 whole entry): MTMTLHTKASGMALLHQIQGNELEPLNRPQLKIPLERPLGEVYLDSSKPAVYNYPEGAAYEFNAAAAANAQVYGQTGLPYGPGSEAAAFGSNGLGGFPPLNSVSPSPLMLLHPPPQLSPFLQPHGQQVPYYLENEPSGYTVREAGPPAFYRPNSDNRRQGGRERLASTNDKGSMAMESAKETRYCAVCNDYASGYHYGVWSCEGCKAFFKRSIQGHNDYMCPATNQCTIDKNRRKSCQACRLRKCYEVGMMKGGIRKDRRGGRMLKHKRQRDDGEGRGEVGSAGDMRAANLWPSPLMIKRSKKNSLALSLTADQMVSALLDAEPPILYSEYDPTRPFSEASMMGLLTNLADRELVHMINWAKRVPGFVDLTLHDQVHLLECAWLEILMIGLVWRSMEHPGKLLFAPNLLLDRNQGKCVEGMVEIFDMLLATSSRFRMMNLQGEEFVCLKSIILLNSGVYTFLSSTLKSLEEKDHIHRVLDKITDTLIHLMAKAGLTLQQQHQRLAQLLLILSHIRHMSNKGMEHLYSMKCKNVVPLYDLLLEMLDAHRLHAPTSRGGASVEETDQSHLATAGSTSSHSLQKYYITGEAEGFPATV

Insulin receptor = Insulin receptor (Rattus norvegicus, UniProt P15127); format: cell membranes, Wistar, Liver, Membrane; note: in other assays of this panel Not Active means under 50% inhibition at 10 µM
[2] = biological target: Receptor tyrosine-protein kinase erbB-2 (Homo sapiens, UniProt P04626); assay: biochemical; format: cell-based, Insect cells; settings: insect cells;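 note: inhibition of HER2 kinase enzyme activity, measured with Poly(Glu:Tyr) as the phosphorylation substrate; in other assays of this panel Not Active means under 50% inhibition at 10 µM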
[3] = DRUGMATRIX: GABAA, Chloride Channel, TBOB radioligand binding (ligand: [3H] TBOB); format: cell membranes, Rattus norvegicus, Wistar, Cerebral cortex, Membrane; settings: Not Active = under 50% inhibition at 10 µM
Melanocortin receptor 4 = Melanocortin receptor 4 (Homo sapiens, UniProt P32245); format: cell membranes, Membrane; settings: hek293; note: in other assays of this panel Not Active means under 50% inhibition at 10 µM
[4] = DRUGMATRIX: Phosphodiesterase PDE3 enzyme inhibition (substrate: [3H]cAMP + cAMP); format: tissue-based, Homo sapiens; settings: platelet; Not Active = under 50% inhibition at 10 µM
Cytochrome P450 2D6 = Cytochrome P450 2D6 (Homo sapiens, UniProt P10635); settings: bti-tn-5b1-4; note: in other assays of this panel Not Active means under 50% inhibition at 10 µM
Cytochrome P450 2D6, sequence (P10635 whole entry): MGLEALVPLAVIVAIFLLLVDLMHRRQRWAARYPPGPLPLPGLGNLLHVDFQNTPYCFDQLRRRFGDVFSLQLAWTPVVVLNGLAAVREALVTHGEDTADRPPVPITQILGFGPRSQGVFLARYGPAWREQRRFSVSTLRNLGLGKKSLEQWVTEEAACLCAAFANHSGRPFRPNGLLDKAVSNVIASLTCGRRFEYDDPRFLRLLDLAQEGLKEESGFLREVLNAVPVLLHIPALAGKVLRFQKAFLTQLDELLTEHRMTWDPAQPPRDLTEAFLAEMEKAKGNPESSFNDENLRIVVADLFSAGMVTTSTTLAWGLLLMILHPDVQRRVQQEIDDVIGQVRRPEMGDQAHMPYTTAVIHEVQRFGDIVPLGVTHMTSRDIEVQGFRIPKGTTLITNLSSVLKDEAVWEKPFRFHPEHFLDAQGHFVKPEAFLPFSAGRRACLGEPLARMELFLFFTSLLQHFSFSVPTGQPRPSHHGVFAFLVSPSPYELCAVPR

Insulin receptor, sequence (P15127 27-759 limits assumed): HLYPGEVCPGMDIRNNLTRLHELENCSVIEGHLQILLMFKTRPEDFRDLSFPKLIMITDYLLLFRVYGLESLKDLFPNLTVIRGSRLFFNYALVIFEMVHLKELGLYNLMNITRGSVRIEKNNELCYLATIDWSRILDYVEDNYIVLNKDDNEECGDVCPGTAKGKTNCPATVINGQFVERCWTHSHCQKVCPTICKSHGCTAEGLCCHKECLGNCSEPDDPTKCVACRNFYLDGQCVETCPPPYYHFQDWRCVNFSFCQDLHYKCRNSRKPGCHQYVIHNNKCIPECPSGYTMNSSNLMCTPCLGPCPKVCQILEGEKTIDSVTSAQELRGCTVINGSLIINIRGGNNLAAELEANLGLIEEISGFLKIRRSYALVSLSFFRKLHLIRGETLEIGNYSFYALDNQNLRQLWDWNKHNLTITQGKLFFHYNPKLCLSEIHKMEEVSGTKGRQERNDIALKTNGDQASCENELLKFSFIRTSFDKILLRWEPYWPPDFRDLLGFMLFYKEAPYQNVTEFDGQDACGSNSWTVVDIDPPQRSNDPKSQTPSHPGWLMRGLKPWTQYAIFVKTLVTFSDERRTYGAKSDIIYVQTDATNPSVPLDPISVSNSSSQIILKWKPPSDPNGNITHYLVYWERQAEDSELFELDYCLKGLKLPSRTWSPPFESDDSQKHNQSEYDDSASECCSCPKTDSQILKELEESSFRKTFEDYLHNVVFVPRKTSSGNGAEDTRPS
Insulin receptor, sequence (P15127 764-1383 limits assumed): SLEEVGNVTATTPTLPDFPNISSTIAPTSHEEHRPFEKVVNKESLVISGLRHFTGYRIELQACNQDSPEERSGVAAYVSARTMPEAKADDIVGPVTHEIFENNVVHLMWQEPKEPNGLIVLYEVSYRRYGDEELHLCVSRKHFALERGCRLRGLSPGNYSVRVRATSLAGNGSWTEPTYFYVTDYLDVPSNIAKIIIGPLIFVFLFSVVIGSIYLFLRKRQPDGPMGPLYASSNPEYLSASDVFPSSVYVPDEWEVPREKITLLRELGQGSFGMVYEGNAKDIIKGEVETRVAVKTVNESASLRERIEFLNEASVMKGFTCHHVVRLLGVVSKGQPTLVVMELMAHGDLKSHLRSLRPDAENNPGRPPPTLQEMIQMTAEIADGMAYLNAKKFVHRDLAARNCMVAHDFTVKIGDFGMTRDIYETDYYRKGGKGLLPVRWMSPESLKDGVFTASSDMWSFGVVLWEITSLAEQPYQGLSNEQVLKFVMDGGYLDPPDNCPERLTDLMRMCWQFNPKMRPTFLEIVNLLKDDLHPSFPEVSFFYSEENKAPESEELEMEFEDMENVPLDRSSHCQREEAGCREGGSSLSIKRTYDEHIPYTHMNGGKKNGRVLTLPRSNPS
Receptor tyrosine-protein kinase erbB-2, sequence (P04626 whole entry): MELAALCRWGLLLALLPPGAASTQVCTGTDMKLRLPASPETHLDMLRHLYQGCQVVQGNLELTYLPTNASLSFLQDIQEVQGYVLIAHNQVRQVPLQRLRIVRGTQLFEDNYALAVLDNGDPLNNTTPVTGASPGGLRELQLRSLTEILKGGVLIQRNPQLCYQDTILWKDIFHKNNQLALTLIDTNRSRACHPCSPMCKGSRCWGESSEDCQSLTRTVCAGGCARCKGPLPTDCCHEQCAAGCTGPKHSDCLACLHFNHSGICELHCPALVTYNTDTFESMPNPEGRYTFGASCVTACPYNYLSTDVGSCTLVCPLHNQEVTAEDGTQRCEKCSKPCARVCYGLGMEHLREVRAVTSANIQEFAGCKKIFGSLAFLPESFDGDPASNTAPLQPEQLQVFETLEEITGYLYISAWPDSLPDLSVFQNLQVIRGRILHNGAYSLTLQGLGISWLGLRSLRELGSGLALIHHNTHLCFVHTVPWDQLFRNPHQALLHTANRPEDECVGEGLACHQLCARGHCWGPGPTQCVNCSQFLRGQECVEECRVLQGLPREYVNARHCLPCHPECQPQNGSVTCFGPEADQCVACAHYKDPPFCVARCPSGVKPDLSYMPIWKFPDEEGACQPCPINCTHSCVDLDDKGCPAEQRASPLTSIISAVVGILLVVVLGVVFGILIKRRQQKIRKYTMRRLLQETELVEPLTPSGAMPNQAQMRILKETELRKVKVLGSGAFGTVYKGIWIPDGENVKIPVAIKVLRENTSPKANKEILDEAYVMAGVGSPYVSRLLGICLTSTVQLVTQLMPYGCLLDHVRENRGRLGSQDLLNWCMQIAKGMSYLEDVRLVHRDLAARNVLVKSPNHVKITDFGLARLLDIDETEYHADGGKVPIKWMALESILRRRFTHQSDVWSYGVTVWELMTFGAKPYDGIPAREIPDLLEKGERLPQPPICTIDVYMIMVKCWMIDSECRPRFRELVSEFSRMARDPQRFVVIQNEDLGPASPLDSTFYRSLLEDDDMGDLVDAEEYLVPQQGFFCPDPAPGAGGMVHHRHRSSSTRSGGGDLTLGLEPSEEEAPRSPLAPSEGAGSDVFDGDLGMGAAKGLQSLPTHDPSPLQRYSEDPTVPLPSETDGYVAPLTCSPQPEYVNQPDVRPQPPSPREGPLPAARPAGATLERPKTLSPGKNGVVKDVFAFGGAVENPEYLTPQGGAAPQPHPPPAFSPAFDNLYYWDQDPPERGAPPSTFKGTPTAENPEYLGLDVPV
Melanocortin receptor 4, sequence (P32245 whole entry): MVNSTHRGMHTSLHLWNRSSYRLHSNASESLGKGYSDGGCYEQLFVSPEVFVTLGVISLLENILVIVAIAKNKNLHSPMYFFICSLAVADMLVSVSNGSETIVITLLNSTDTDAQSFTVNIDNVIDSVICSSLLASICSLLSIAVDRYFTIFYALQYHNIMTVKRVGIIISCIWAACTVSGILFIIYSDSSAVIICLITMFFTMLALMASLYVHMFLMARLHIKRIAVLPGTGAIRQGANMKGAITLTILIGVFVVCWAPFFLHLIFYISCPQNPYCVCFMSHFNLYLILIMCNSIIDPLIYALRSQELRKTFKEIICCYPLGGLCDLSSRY

CN1CCC(=C2c3ccccc3CC(=O)c3sccc32)CC1 [KETOTIFEN]
Not Active: IC50 [1] | IC50 (Estrogen receptor) | IC50 (Insulin receptor) | IC50 [2] | IC50 [3] | Ki [3] | IC50 (Melanocortin receptor 4) | IC50 [4] | Ki [4] | IC50 (Cytochrome P450 2D6) | Ki (Cytochrome P450 2D6)

CCn1cc(C(=O)O)c(=O)c2cc(F)c(N3CCNC(C)C3)c(F)c21 (stereo not drawn) [LOMEFLOXACIN]
Not Active: IC50 [1] | IC50 (Estrogen receptor) | IC50 (Insulin receptor) | IC50 [2] | IC50 [3] | Ki [3] | IC50 (Melanocortin receptor 4) | IC50 [4] | Ki [4] | IC50 (Cytochrome P450 2D6) | Ki (Cytochrome P450 2D6)

CN1CCCC(CN2c3ccccc3Sc3ccccc32)C1 (stereo not drawn) [MEPAZINE]
Not Active: IC50 [1] | IC50 (Estrogen receptor) | IC50 (Insulin receptor) | IC50 [2] | IC50 [3] | Ki [3] | IC50 (Melanocortin receptor 4) | IC50 [4] | Ki [4] | IC50 (Cytochrome P450 2D6) | Ki (Cytochrome P450 2D6)

Cc1cccc(C)c1NC(=O)C1CCCCN1C (stereo not drawn) [MEPIVACAINE]
Not Active: IC50 [1] | IC50 (Estrogen receptor) | IC50 (Insulin receptor) | IC50 [2] | IC50 [3] | Ki [3] | IC50 (Melanocortin receptor 4) | IC50 [4] | Ki [4] | IC50 (Cytochrome P450 2D6) | Ki (Cytochrome P450 2D6)

CC(C)(C)NCC(O)COc1cccc2c1CC(O)C(O)C2 (stereo not drawn) [NADOLOL]
Not Active: IC50 [1] | IC50 (Estrogen receptor) | IC50 (Insulin receptor) | IC50 [2] | IC50 [3] | Ki [3] | IC50 (Melanocortin receptor 4) | IC50 [4] | Ki [4] | IC50 (Cytochrome P450 2D6) | Ki (Cytochrome P450 2D6)

C[C@]12CC[C@H]3[C@@H](CCC4=CC(=O)CC[C@@H]43)[C@@H]1CC[C@@H]2O [NANDROLONE]
Not Active: IC50 [1] | IC50 (Estrogen receptor) | IC50 (Insulin receptor) | IC50 [2] | IC50 [3] | Ki [3] | IC50 (Melanocortin receptor 4) | IC50 [4] | Ki [4] | IC50 (Cytochrome P450 2D6) | Ki (Cytochrome P450 2D6)

CN(C)C(=O)Oc1cccc([N+](C)(C)C)c1.[Br-] [NEOSTIGMINE BROMIDE]
Not Active: IC50 [1] | IC50 (Estrogen receptor) | IC50 (Insulin receptor) | IC50 [2] | IC50 [3] | Ki [3] | IC50 (Melanocortin receptor 4) | IC50 [4] | Ki [4] | IC50 (Cytochrome P450 2D6) | Ki (Cytochrome P450 2D6)

NC(=O)c1cccnc1 [NIACINAMIDE]
Not Active: IC50 [1] | IC50 (Estrogen receptor) | IC50 (Insulin receptor) | IC50 [2] | IC50 [3] | Ki [3] | IC50 (Melanocortin receptor 4) | IC50 [4] | Ki [4] | IC50 (Cytochrome P450 2D6) | Ki (Cytochrome P450 2D6)

CN1C(=O)CN=C(c2ccccc2)c2cc([N+](=O)[O-])ccc21 [NIMETAZEPAM]
Not Active: IC50 [1] | IC50 (Estrogen receptor) | IC50 (Insulin receptor) | IC50 [2] | IC50 [3] | Ki [3] | IC50 (Melanocortin receptor 4) | IC50 [4] | Ki [4] | IC50 (Cytochrome P450 2D6) | Ki (Cytochrome P450 2D6)

C[C@@H]1O[C@@H](O[C@H]2C[C@@H](O)[C@]3(CO)[C@H]4[C@H](O)C[C@]5(C)[C@@H](C6=CC(=O)OC6)CC[C@]5(O)[C@@H]4CC[C@]3(O)C2)[C@H](O)[C@H](O)[C@H]1O [OUABAIN]
Not Active: IC50 [1] | IC50 (Estrogen receptor) | IC50 (Insulin receptor) | IC50 [2] | IC50 [3] | Ki [3] | IC50 (Melanocortin receptor 4) | IC50 [4] | Ki [4] | IC50 (Cytochrome P450 2D6) | Ki (Cytochrome P450 2D6)

COc1ccnc(C[S+]([O-])c2nc3ccc(OC(F)F)cc3[nH]2)c1OC (stereo not drawn) [PANTOPRAZOLE]
Not Active: IC50 [1] | IC50 (Estrogen receptor) | IC50 (Insulin receptor) | IC50 [2] | IC50 [3] | Ki [3] | IC50 (Melanocortin receptor 4) | IC50 [4] | Ki [4] | IC50 (Cytochrome P450 2D6) | Ki (Cytochrome P450 2D6)

N=C(N)c1ccc(OCCCCCOc2ccc(C(=N)N)cc2)cc1 [PENTAMIDINE]
Not Active: IC50 [1] | IC50 (Estrogen receptor) | IC50 (Insulin receptor) | IC50 [2] | IC50 [3] | Ki [3] | IC50 (Melanocortin receptor 4) | IC50 [4] | Ki [4] | IC50 (Cytochrome P450 2D6) | Ki (Cytochrome P450 2D6)

CCc1ccc(CCOc2ccc(CC3SC(=O)NC3=O)cc2)nc1 (stereo not drawn) [PIOGLITAZONE]
Not Active: IC50 [1] | IC50 (Estrogen receptor) | IC50 (Insulin receptor) | IC50 [2] | IC50 [3] | Ki [3] | IC50 (Melanocortin receptor 4) | IC50 [4] | Ki [4] | IC50 (Cytochrome P450 2D6) | Ki (Cytochrome P450 2D6)
